Data as given in patent US4226610A, “Herbicidal compounds, preparation thereof and herbicides containing the same” (Meiji Selka Kaisha, Ltd., priority 1978, dated 1980).
Where a name gives a salt, the structure may show the parent alone.

How the values were obtained:
[1] = test system: warunasubi; experiment: Experiment 1 foliar application to naturally growing weeds; format: in vivo, Solanum carolinensis L.; conditions: 4 months
Source text: (§1) The detail of the assessment made in the following Experiments of the invention was as follows:
(§2) Four months after treatment, evaluation was made for inhibition of reproduction expressed in terms of symbols ranging from (-) to (+++) where (-) means no reproduction, namely complete suppression of reproduction, (±) remarkable suppression of reproduction; (+) considerable suppression of reproduction; (++) medium supprestion of reproduction; and (+++) no suppression of reproduction.
(§3) The compounds of the invention and other compounds for comparison listed in Table 3 were diluted to prescribed concentrations and sprayed to naturally growing weeds by foliar application in an amount of 150 liter per 10 are.
(§4) 0.1% of octylphenyl polyoxyethanol was added as a surfactant.
(§5) The killing index (0, no effect, 5, death) after 21 days, and the reproduction-inhibiting effect (-, no reproduction; +++, maximum reproduction) after 2 months (manna grass and cockspar grass) and 4 months (other weeds) were determined.

[2] = test system: torch azalea; experiment: Experiment 3 foliar application to naturally growing shrubs; format: in vivo, Rhododendoron Kaempferi Planch.; conditions: after 3 months
Source text: as §1, §2
(§6) The compounds of the invention and other compounds listed in Table 5. were diluted to prescribed concentrations and sprayed onto naturally growing shrubs by foliar application in an amount of 150 liter per 10 are.
(§7) 0.1% of octylphenyl polyoxyethanol was added as the surfactant. The killing index (0, no effect; 5, death) after 1 month and 3 months, and the reproduction-inhibiting effect (-, no reproduction; +++, maximum reproduction) after 3 months were determined.

[3] = test system: white clover; experiment: Experiment 1 foliar application to naturally growing weeds; format: in vivo, Trifolium repens L.; conditions: 4 months
Source text: as §1, §2, §3, §4, §5

[4] = test system: yabugarashi; experiment: as above; format: in vivo, Cayratia japonica Houtt.; conditions: 4 months
Source text: as §1, §2, §3, §4, §5

[5] = test system: eulalia; experiment: Experiment 2 foliar application in Japanese cypress afforested land; format: in vivo, Miscanthus sinensis Andress.; design: key: 0 = no effect, 5 = death; conditions: 0.25%
Experimental: as §1
(§8) The compounds of the invention and other compounds listed in Table 4. were diluted to prescribed concentrations and sprayed to shrubs by foliar application in a Japanese cypress afforested land in an amount of 150 liter per 10 are.
(§9) After 30 days and 3 months, the killing index (0, no effect; 5, death) was determined.
(§10) The heights of plants were 50-70 cm. for Japanese cypress, about 50 cm. for chestnut, 50-90 cm. for miyakozasa, about 100 cm. for eulalia and 70-100 cm. for kumaichigo, respectively.

[6] = test system: Japanese bush cranberry; experiment: Experiment 3 foliar application to naturally growing shrubs; format: in vivo, Viburnum dilatatum Thunb.; conditions: after 3 months
Source text: as §1, §2, §6, §7

[7] = test system: lace shrub; experiment: as above; format: in vivo, Stephanandra incisa Zabel; conditions: after 3 months
Source text: as §1, §2, §6, §7

[8] = test system: yamazakura; experiment: as above; format: in vivo, Prunus donarium Sieb. var. spontanae Makino; conditions: after 3 months
Source text: as §1, §2, §6, §7

[9] = test system: miyakozasa; experiment: Experiment 2 foliar application in Japanese cypress afforested land; format: in vivo, Sasa nipponica Makino et Shibata; conditions: 0.25%
Experimental: as §1, §8, §9, §10

[10] = test system: Japanese prickly ash; experiment: Experiment 3 foliar application to naturally growing shrubs; format: in vivo, Xanthoxylum piperitum DC.; conditions: after 3 months
Source text: as §1, §2, §6, §7

[11] = test system: kiichigo; experiment: as above; format: in vivo, Rubus palmatsu Thunb. forma coptophyllus Makino; conditions: after 3 months
Source text: as §1, §2, §6, §7

[12] = test system: purple nutsedge; experiment: Experiment 1 foliar application to naturally growing weeds; format: in vivo, Cyperus rotundus L.; conditions: 4 months
Source text: as §1, §2, §3, §4, §5

[13] = test system: oak; experiment: Experiment 3 foliar application to naturally growing shrubs; format: in vivo, Quercus serrata Thunb; conditions: after 3 months
Source text: as §1, §2, §6, §7

[14] = test system: azumanezasa; experiment: Experiment 1 foliar application to naturally growing weeds; format: in vivo, Pleioblastus Chino Makino; conditions: 4 months
Source text: as §1, §2, §3, §4, §5

[15] = test system: hedge bindweed; experiment: as above; format: in vivo, Calystegis hederacea Wall.; conditions: 4 months
Source text: as §1, §2, §3, §4, §5

[16] = test system: chigaya; experiment: as above; format: in vivo, Imperata cylindrica Beauv.; conditions: 4 months
Source text: as §1, §2, §3, §4, §5

[17] = test system: cockspar grass; experiment: as above; format: in vivo, Echinochloa Crusgalli P. Beauv.; conditions: for Reproduction-inhibiting effect: 2 months; for Killing index of Upperground parts: 21 days
Source text: as §1, §2, §3, §4, §5

[18] = test system: manna grass; experiment: as above; format: in vivo, Digitaria adsceudes Henr.; conditions: for Reproduction-inhibiting effect: 2 months; for Killing index of Upperground parts: 21 days
Source text: as §1, §2, §3, §4, §5

C[C@H](NC(=O)[C@H](C)NC(=O)[C@@H](N)CCP(C)(=O)O)C(=O)O [(L-2-Amino-4-methylphosphinobutyryl)-L-alanyl-L-alanine mono] [(L-2-Amino-4-methylphosphinobutyryl)-L-alanyl-L-alanine monodiethanolammonium salt]
4.5: Killing index ([5]; after 3 months) | Killing index ([5]; after 30 days) | Killing index ([9]; after 3 months) | Killing index ([9]; after 30 days) | Killing index of Upperground parts ([17]; 0.2%) | Killing index of Upperground parts ([18]; 0.2%)
±: Reproduction-inhibiting effect ([4]; 0.2%)
3.5: Killing index of Upperground parts ([17]; 0.1%) | Killing index of Upperground parts ([18]; 0.1%)
-: Reproduction-inhibiting ([2]; 0.2%) | Reproduction-inhibiting effect ([3]; 0.2%) | Reproduction-inhibiting ([6]; 0.2%) | Reproduction-inhibiting ([7]; 0.2%) | Reproduction-inhibiting ([8]; 0.2%) | Reproduction-inhibiting ([10]; 0.2%) | Reproduction-inhibiting ([11]; 0.2%) | Reproduction-inhibiting ([13]; 0.2%) | Reproduction-inhibiting effect ([14]; 0.2%) | Reproduction-inhibiting effect ([16]; 0.2%) | Reproduction-inhibiting effect ([17]; 0.2%) | Reproduction-inhibiting effect ([18]; 0.2%)
+++: Reproduction-inhibiting effect ([1]; 0.05%) | Reproduction-inhibiting effect ([1]; 0.1%) | Reproduction-inhibiting ([2]; 0.05%) | Reproduction-inhibiting effect ([3]; 0.05%) | Reproduction-inhibiting effect ([3]; 0.1%) | Reproduction-inhibiting effect ([4]; 0.05%) | Reproduction-inhibiting ([6]; 0.05%) | Reproduction-inhibiting ([7]; 0.05%) | Reproduction-inhibiting ([8]; 0.05%) | Reproduction-inhibiting ([10]; 0.05%) | Reproduction-inhibiting ([11]; 0.05%) | Reproduction-inhibiting effect ([12]; 0.05%) | Reproduction-inhibiting effect ([12]; 0.1%) | Reproduction-inhibiting ([13]; 0.05%) | Reproduction-inhibiting effect ([14]; 0.05%) | Reproduction-inhibiting effect ([15]; 0.05%) | Reproduction-inhibiting effect ([15]; 0.1%) | Reproduction-inhibiting effect ([15]; 0.2%) | Reproduction-inhibiting effect ([16]; 0.05%) | Reproduction-inhibiting effect ([17]; 0.05%) | Reproduction-inhibiting effect ([18]; 0.05%)
+: Reproduction-inhibiting effect ([1]; 0.2%) | Reproduction-inhibiting ([6]; 0.1%) | Reproduction-inhibiting ([10]; 0.1%) | Reproduction-inhibiting ([11]; 0.1%) | Reproduction-inhibiting effect ([12]; 0.2%) | Reproduction-inhibiting effect ([14]; 0.1%)
++: Reproduction-inhibiting ([2]; 0.1%) | Reproduction-inhibiting effect ([4]; 0.1%) | Reproduction-inhibiting ([7]; 0.1%) | Reproduction-inhibiting ([8]; 0.1%) | Reproduction-inhibiting ([13]; 0.1%) | Reproduction-inhibiting effect ([16]; 0.1%) | Reproduction-inhibiting effect ([17]; 0.1%) | Reproduction-inhibiting effect ([18]; 0.1%)
